Measurements as given in PMC4595804, “A strategy to discover decoy chemokine ligands with an anti-inflammatory activity” (Scientific Reports, 2015).
Like-named read-outs stand apart in the source and are kept apart here.

What was measured:
[1] = molecular target: T1, CCL22 (Homo sapiens, UniProt O00626); assay: Tryptophan fluorescence assay on CCL22; format: binding
T1 construct: codes for the mature CCL17 or CCL22 with an N-terminal thioredoxin-hexahistidin (TRX- (His)6) tag; thioredoxin (TRX) (N, cleaved yes); (His)6 (N, cleaved yes); made in house; host or cells: E. coli BL21 (DE3)
T1 sequence (O00626 25-93): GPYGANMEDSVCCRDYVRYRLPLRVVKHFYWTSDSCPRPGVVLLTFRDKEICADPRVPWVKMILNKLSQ
Protocol: Fluorescence measurements were performed on a spectrofluorometer (JobinYvon/Spex) in a quartz microcuvette at 20 °C. […] The fluorescence emission spectra were corrected by subtracting the emission scan of the compounds alone and data analysis was carried out with fluorescence intensities detected at 340 nm.

[2] = molecular target: T2, CCL5 (Homo sapiens, UniProt P13501); assay: Selectivity, neutraligand protocol, EGFP-CCR5+ HEK cells; format: cell-based; conditions: 10 μM compound, 5 nM CCL5, EGFP-CCR5+ HEK cells
T2 construct: (His)6; made in house; host or cells: E. coli BL21 (DE3)
Protocol: (§1) Figure 6 (a) Selectivity of CCL17 and CCL22 neutraligands towards 10 chemokines according to the “neutraligand protocol”. […] Each column represents the mean (block) ± SD (bars) of n = 3 experiments performed in triplicate. *p < 0.05; **p < 0.01; ***p < 0.005 as compared to chemokine + DMSO. (b) Chemokine neutraligands inhibited CCR4 endocytosis induced by CCL22 or CCL17. EGFP-CCR4^+ HEK cells were incubated for 30 min with DMSO or chemokine (100 nM CCL22 or CCL17) in the presence or absence of test compounds. […] Cell surface EGFP-tagged CCR4 receptors were measured by EGFP antibody labeling and flow cytometry analysis. CCR4 internalization was expressed as a percentage of total receptor surface expression calculated using control cells incubated with DMSO (100%). Each column represents the mean (block) ± SD (bars) of n = 3 experiments performed in triplicate. *p < 0.05; **p < 0.01; ***p < 0.005 as compared to chemokine alone. (c,d) Inhibition of CCL17 and CCL22- induced CCR4^+HUT78 T cell chemotaxis by neutraligands. […] The number of migrating cells induced by a chemokine alone was set at 100% migration. The number of migrating cells in the presence of chemokine and compounds were expressed as the corresponding percentages. Results were analyzed by fitting the experimental curves (% of migrating cells vs log compound concentration) using the Kaleidagraph software program, and the corresponding IC50 values were calculated. Means and SD values of triplicates were plotted.
(§2) Human cDNAs encoding CCR4 and CXCR3 receptors were cloned in pIRES plasmid (Clontech) while cDNAs encoding CCR2, CCR5, CXCR2 and CXCR4 receptors were cloned in pCEP4 vector (Life technologies). The receptors are cloned in frame with a signal peptide fused to enhanced green fluorescent protein (EGFP) as described previously. All plasmid constructs were fully sequenced prior to transfections. Human Kidney Embryonic HEK-293 cells (ATCC) were maintained in Minimal Essential Medium (MEM, Invitrogen) supplemented with 10% FCS, penicillin (100 U/ml), streptomycin (100 μg/ml) and L-glutamine (2 mM) (Invitrogen) at 37 °C and 5% CO2. The cells were transfected with pIRES EGFP-CCR4 plasmid using calcium phosphate precipitation method. Stably EGFP-CCR4^+ HEK cells were selected for 5 weeks with geneticin (G-418, 600μg/ml), and resulting cell clones were checked by fluorescence microscopy and FACS analysis. HEK cells stably expressing human CXCR2, CXCR3, CXCR4, CCR5 and CCR2 were generated as described previously.
(§3) Dye loaded cells were placed in the FlexStation 3 (Molecular Devices). Calcium mobilization was measured at 401 and 475 nm emission fluorescence after excitation at 355 nm. For the primary screening, the ligands (50μl of chemokine mixed with DMSO or test compounds) were added to the cells at 40 s, followed by digitonin addition (50μl) at 100 s to the cells. Molecules were screened at a final concentration of 2μg/ml with 5 nM CCL17 or CCL22. […] Raw fluorescence data (at 401 and 475 nm) were exported and the ratio 401/475 was calculated. The calcium response values (height of peak response over baseline) were determined. Hits were selected by comparing the response amplitude at the time of the chemokine addition ± test compound. The Z’ factor[29] was calculated according to the following equation: Z’ = 1-(3SD+ + 3SD−)/|Ave+ − Ave−|, where SD+ and Ave+ are respectively the standard deviation and the mean value of the positive controls (chemokine + DMSO), while SD− and Ave− are respectively the standard deviation and the mean value of the negative controls (HEPES-BSA (0.1%) mixed with DMSO, or cells mixed with C-021). Hit molecules were confirmed by performing concentration-response curves and their half maximal inhibitory concentration (IC50) values were calculated using the Kaleidagraph software.

[3] = molecular target: T3, CCL3 (Homo sapiens, UniProt P10147); assay: as above; format: cell-based; conditions: 10 μM compound, 5 nM CCL3, EGFP-CCR5+ HEK cells
T3 construct: purchased R&D systems
Protocol: as §1, §2, §3

[4] = molecular target: T4, CCL4 (Homo sapiens, UniProt P13236); assay: as above; format: cell-based; conditions: 10 μM compound, 5 nM CCL4, EGFP-CCR5+ HEK cells
T4 construct: purchased R&D systems
Protocol: as §1, §2, §3

T4 sequence (P13236 24-92): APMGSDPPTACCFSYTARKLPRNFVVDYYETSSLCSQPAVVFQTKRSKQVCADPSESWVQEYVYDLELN
T3 sequence (P10147 24-92): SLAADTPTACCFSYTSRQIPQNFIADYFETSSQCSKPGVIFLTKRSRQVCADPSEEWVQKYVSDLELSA
T2 sequence (P13501 24-91): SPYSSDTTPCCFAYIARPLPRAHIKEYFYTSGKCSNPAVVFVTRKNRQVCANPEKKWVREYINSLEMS

Kd ([1]; 1.5 μM CCL22, tryptophan fluorescence at 340 nm, estimated, read-out: KD, high-affinity binding site class, on CCL22) [µM] | Kd ([1]; […] CCL22, tryptophan fluorescence at 340 nm, read-out: KD, low-affinity binding site class, on CCL22) [µM] | Compound | effect on calcium responses induced by CCL5 [2] | effect on calcium responses induced by CCL3 [3] | effect on calcium responses induced by CCL4 [4]
< 0.05 | 53 | O=C(OCC(O)CO)c1ccccc1O (centres unmarked) [GPN136, 2,3-dihydroxypropyl 2-hydroxybenzoate] | no effect | no effect | no effect
 |  | CC(C)=CCn1cnc2c1c(=O)n(C)c(=O)n2C [GPN279, 1,3-dimethyl-7-(3-methylbut-2-enyl)-1H-purine-2,6(3H, 7H)-dione] | no effect | no effect | no effect
